Assay type in all cases: cell-based
The target of one assay is T1, 5-HT2C receptor (Homo sapiens, UniProt P28335).
T1 construct: host or cells: HEK293
T1 sequence (P28335 33-458): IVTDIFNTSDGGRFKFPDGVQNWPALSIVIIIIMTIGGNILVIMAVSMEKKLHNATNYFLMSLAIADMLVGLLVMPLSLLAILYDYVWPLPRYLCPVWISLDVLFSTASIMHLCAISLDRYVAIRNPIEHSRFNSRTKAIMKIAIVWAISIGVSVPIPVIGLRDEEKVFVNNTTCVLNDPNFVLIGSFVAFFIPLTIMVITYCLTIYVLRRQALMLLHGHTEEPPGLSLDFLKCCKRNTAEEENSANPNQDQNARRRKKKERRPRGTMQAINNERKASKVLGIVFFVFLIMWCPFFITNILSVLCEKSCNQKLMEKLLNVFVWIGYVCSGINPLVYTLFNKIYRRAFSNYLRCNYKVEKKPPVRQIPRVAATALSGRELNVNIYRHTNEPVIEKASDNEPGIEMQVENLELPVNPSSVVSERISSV
Description: FLIPR Ca2+ flux functional assay, agonist activity at 5-HT2C. Conditions: HEK293 cells, Ca2+ flux; for EC50: read-out: 5-HT2C EC50. As to the method:
(§1) Activity at 5-HT2A, 5-HT2B and 5-HT2C receptors was determined using a FLIPR Ca2+ flux assay at WuXi AppTec Co. Ltd. (Hong Kong) Discovery Biology Unit according to their standard protocols. Briefly, stably transfected cells expressing the receptor of interest (HEK293 for 5-HT2A and 5-HT2C; CHO-K1 for 5-HT2B) were grown and plated in a 384 well plate and incubated at 37° C. and 5% CO2 overnight. A 250 mM stock solution of probenecid in FLIPR calcium assay buffer (10 mL) was freshly prepared and combined with a fluorescent dye (Fluo-4 Direct) to give a final assay concentration of 2.5 mM. Reference compounds were 4-fold serially diluted and the screening compounds were 3-fold serially diluted in 100% DMSO for 10 points using Agilent Bravo, and 750 nL was added to a 384 well compound plate using Echo along with 30 μL assay buffer. The fluorescent dye was then added to the assay plate along with assay buffer to a final volume of 40 μL. The cell plate was incubated for 50 min at 37° C. and 5% CO2 and placed into the FLIPR Tetra along with the compound plate. 10 μL of references and compounds were then transferred from the compound plate into the cell plate and the fluorescent signal was read.
(Calcium assays in cells follow changes in intracellular calcium, usually with a dye or a luminescent sensor.)

A further assay concerns the target T2, 5-HT2A receptor (Homo sapiens, UniProt P28223).
T2 construct: host or cells: HEK293
The assay can be described thus: FLIPR Ca2+ flux functional assay, agonist activity at 5-HT2A. The conditions noted are these: HEK293 cells, Ca2+ flux; for EC50: read-out: 5-HT2A EC50. As to the method:
as §1

The target of another assay is T3, 5-HT2B receptor (Homo sapiens, UniProt P41595).
T3 construct: host or cells: CHO-K1
T3 sequence (P41595 whole entry): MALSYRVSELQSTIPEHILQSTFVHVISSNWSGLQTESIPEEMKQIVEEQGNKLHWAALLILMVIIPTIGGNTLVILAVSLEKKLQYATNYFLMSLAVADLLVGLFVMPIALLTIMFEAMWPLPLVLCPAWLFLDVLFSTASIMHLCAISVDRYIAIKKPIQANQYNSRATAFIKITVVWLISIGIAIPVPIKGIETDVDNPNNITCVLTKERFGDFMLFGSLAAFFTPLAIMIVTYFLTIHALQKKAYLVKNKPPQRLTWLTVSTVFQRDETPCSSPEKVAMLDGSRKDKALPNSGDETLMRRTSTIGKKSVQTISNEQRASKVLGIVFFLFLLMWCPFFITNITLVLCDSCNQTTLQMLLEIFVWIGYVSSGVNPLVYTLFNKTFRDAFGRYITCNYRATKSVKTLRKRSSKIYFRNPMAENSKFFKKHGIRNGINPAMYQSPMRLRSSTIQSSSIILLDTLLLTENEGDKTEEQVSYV
Description: FLIPR Ca2+ flux functional assay, agonist activity at 5-HT2B. Conditions: CHO-K1 cells, Ca2+ flux; for EC50: read-out: 5-HT2B EC50. As to the method:
as §1

T2 sequence (P28223 whole entry): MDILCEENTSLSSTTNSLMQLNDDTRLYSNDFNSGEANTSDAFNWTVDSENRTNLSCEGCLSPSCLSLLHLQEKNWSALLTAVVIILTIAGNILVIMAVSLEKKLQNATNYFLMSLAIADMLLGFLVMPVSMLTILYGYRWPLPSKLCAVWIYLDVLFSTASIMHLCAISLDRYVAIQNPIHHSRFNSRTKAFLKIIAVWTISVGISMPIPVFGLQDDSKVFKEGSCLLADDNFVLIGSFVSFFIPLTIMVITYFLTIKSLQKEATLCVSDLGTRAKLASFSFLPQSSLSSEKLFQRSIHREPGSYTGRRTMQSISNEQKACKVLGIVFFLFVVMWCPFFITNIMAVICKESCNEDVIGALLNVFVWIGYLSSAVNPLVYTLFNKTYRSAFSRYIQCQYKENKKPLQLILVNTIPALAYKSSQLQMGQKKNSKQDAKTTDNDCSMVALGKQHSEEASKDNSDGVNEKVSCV

Consider `CCN(C)CCc1c[nH]c2nccc(F)c12` [Example P-33, N-ethyl-N-methyl-2-(4-fluoro-1H-pyrrolo[2,3-b]pyridin-3-yl)ethan-1-amine], for which the Emax at 5-HT2C receptor stood at 0.33%; on 5-HT2A receptor, 54.7%; at 5-HT2B receptor it was 0.01%. The EC50 on 5-HT2C receptor is > 10 µM; on 5-HT2A receptor it was 0.641 µM; at 5-HT2B receptor it was > 10 µM.
Consider `CCN(C)CCc1n[nH]c2ccc(OC)cc12` [Example P-51, N-ethyl-2-(5-methoxy-1H-indazol-3-yl)-N-methylethan-1-amine], for which the EC50 was > 10 µM at 5-HT2C receptor, 0.526 µM on 5-HT2A receptor and > 10 µM at 5-HT2B receptor.
In the case of `CCN(CC)CCc1c[nH]c2ncc(OC)cc12` [Example P-17, 2-(5-methoxy-1H-pyrrolo[2,3-b]pyridin-3-yl)-N,N-diethylethan-1-amine], the Emax on 5-HT2C receptor is -0.53%; at 5-HT2A receptor, 84.7%; on 5-HT2B receptor, 0.37%. The EC50 was > 10 µM on 5-HT2C receptor, 0.279 µM on 5-HT2A receptor and > 10 µM on 5-HT2B receptor.
For `CCCN(CCC)CCc1c[nH]c2ccnc(OC)c12` [Example P-35, N,N-dipropyl-2-(4-methoxy-1H-pyrrolo[3,2-c]pyridin-3-yl)ethan-1-amine], the Emax came out at 55.6% on 5-HT2C receptor, 82.2% on 5-HT2A receptor and 74.7% at 5-HT2B receptor. Further, the EC50 on 5-HT2C receptor was determined as 7.18 µM; at 5-HT2A receptor, 0.079 µM; on 5-HT2B receptor, 0.0785 µM.
As to `COc1ccnc2[nH]cc(CCN(C)C(C)C)c12` [Example P-29, N-(2-(4-methoxy-1H-pyrrolo[2,3-b]pyridin-3-yl)ethyl)-N-methylpropan-2-amine], the Emax at 5-HT2C receptor amounted to 0.48%; on 5-HT2A receptor, 71.6%; at 5-HT2B receptor, 0.59%. The values for the EC50 on 5-HT2C receptor, at 5-HT2A receptor and at 5-HT2B receptor were > 10 µM, 0.555 µM and > 10 µM, respectively.
Take `COc1ccc2onc(CCN(C)C)c2c1` [Example P-9, 2-(5-methoxybenzo[d]isoxazol-3-yl)-N,N-dimethylethan-1-amine]: the figures for the Emax at 5-HT2C receptor, at 5-HT2A receptor and at 5-HT2B receptor were -30.5%, 37.3% and 2.53%, respectively. Further, the EC50 at 5-HT2C receptor is > 10 µM; at 5-HT2A receptor, 1.02 µM; at 5-HT2B receptor it was > 10 µM.
In the case of `CCN(CC)CCc1c[nH]c2nccc(OC)c12` [Example P-26, N,N-diethyl-2-(4-methoxy-1H-pyrrolo[2,3-b]pyridin-3-yl)ethan-1-amine], the Emax at 5-HT2C receptor amounted to 0.9%; on 5-HT2A receptor, 58.3%; at 5-HT2B receptor it was 3.08%. Besides, the EC50 on 5-HT2C receptor is > 10 µM; on 5-HT2A receptor it was 1.62 µM; on 5-HT2B receptor, > 10 µM.
As to `CN(C)CCc1n[nH]c2cccc(O)c12` [Example P-56, 3-(2-(dimethylamino)ethyl)-1H-indazol-4-ol], the Emax on 5-HT2C receptor is 63.6%; at 5-HT2A receptor it was 50.5%; on 5-HT2B receptor, -0.39%. The EC50 on 5-HT2C receptor is 1.26 µM; on 5-HT2A receptor it was 0.794 µM; on 5-HT2B receptor it was > 10 µM.
`COc1ccc2[nH]cc(CCN(C(C)C)C(C)C)c2n1` [Example P-12, N-isopropyl-N-(2-(5-methoxy-1H-pyrrolo[3,2-b]pyridin-3-yl)ethyl)propan-2-amine]: the Emax was determined as 110% at 5-HT2C receptor, 85.7% at 5-HT2A receptor and 102% on 5-HT2B receptor. The EC50 was 0.2 µM on 5-HT2C receptor, 0.00696 µM on 5-HT2A receptor and 0.0222 µM on 5-HT2B receptor.
As for `CCN(C)CCc1c[nH]c2ncc(C)cc12` [Example P-23, N-ethyl-N-methyl-2-(5-methyl-1H-pyrrolo[2,3-b]pyridin-3-yl)ethan-1-amine], the values for the Emax on 5-HT2C receptor, at 5-HT2A receptor and at 5-HT2B receptor were -0.04%, 55% and 0.88%, respectively. The EC50 is > 10 µM at 5-HT2C receptor, 1.24 µM on 5-HT2A receptor and > 10 µM at 5-HT2B receptor.
Consider `CCN(C)CCc1c[nH]c2ncc(OC)cc12` [Example P-20, N-ethyl-2-(5-methoxy-1H-pyrrolo[2,3-b]pyridin-3-yl)-N-methylethan-1-amine], for which the Emax on 5-HT2C receptor was -0.08%; at 5-HT2A receptor, 76.7%; at 5-HT2B receptor it was 1.38%. Also, the 50% effective concentration (EC50) on 5-HT2C receptor was > 10 µM; on 5-HT2A receptor, 0.0933 µM; on 5-HT2B receptor, > 10 µM.
For the molecule `CCN(C)CCc1c[nH]c2ccnc(C)c12` [Example P-40], at 5-HT2A receptor, the Emax is 0.75% and the EC50 was > 10 µM.
With `CN(C)CCc1n[nH]c2cccc(O)c12` [Example P-6], the EC50 on 5-HT2C receptor and on 5-HT2B receptor was > 10 µM in each case.
For the molecule `COc1nccc2[nH]cc(CCN(C(C)C)C(C)C)c12` [Example P-36, N,N-diisopropyl-2-(4-methoxy-1H-pyrrolo[3,2-c]pyridin-3-yl)ethan-1-amine], the Emax was found to be 38.4% on 5-HT2C receptor, 114% on 5-HT2A receptor and 48.9% at 5-HT2B receptor. Further, the concentration for a half-maximal effect (EC50) on 5-HT2C receptor was > 10 µM; at 5-HT2A receptor it was 0.0771 µM; on 5-HT2B receptor, 0.0964 µM.
For `CCN(C)CCc1c[nH]c2ncc(F)cc12` [Example P-25, N-ethyl-N-methyl-2-(5-fluoro-1H-pyrrolo[2,3-b]pyridin-3-yl)ethan-1-amine], the Emax amounted to 21% at 5-HT2C receptor, 70.3% on 5-HT2A receptor and 8.23% on 5-HT2B receptor. The values for the EC50 on 5-HT2C receptor, on 5-HT2A receptor and at 5-HT2B receptor were > 10 µM, 0.109 µM and > 10 µM, respectively.
On to `CCCN(CCC)CCc1c[nH]c2ncc(OC)cc12` [Example P-18, 2-(5-methoxy-1H-pyrrolo[2,3-b]pyridin-3-yl)-N,N-dipropylethan-1-amine], for which the Emax on 5-HT2C receptor is -0.33%; on 5-HT2A receptor, 89.4%; at 5-HT2B receptor, 9.35%. Also, the EC50 on 5-HT2C receptor is > 10 µM; at 5-HT2A receptor, 0.0855 µM; on 5-HT2B receptor, > 10 µM.
As to `CCCN(CCC)CCc1n[nH]c2cccc(O)c12` [Example P-45, 3-(2-(dipropylamino)ethyl)-1H-indazol-4-ol], the EC50 is > 10 µM on 5-HT2C receptor, 0.16 µM at 5-HT2A receptor and > 10 µM at 5-HT2B receptor.
Take `Cc1cnc2[nH]cc(CCN(C)C)c2c1` [Example P-22, N,N-dimethyl-2-(5-methyl-1H-pyrrolo[2,3-b]pyridin-3-yl)ethan-1-amine]: the Emax turned out to be 0.27% at 5-HT2C receptor, 55.5% on 5-HT2A receptor and 1.91% on 5-HT2B receptor. For the same molecule, the EC50 was > 10 µM at 5-HT2C receptor, 0.691 µM on 5-HT2A receptor and > 10 µM on 5-HT2B receptor.
Take `CCN(CC)CCc1n[nH]c2cccc(O)c12` [Example P-43, 3-(2-(diethylamino)ethyl)-1H-indazol-4-ol]: the results for the EC50 on 5-HT2C receptor, on 5-HT2A receptor and on 5-HT2B receptor were > 10 µM, 2.18 µM and > 10 µM, respectively.
As for `Cc1ccnc2[nH]cc(CCN(C)C)c12` [Example P-30, N,N-dimethyl-2-(4-methyl-1H-pyrrolo[2,3-b]pyridin-3-yl)ethan-1-amine], the Emax at 5-HT2C receptor is 1.04%; at 5-HT2A receptor, 56.6%; on 5-HT2B receptor, 0.03%. Moreover, the EC50 at 5-HT2C receptor was > 10 µM; at 5-HT2A receptor, 0.387 µM; at 5-HT2B receptor, > 10 µM.
Consider `CCN(C)CCc1c[nH]c2nccc(OC)c12` [Example P-28, N-ethyl-2-(4-methoxy-1H-pyrrolo[2,3-b]pyridin-3-yl)-N-methylethan-1-amine], for which the Emax on 5-HT2C receptor is -0.06%; at 5-HT2A receptor, 70.5%; at 5-HT2B receptor, 0.69%. Further, the concentration giving a half-maximal response (EC50) was > 10 µM on 5-HT2C receptor, 0.782 µM on 5-HT2A receptor and > 10 µM on 5-HT2B receptor.
For the molecule `CCCN(CCC)CCc1n[nH]c2ccc(OC)cc12` [Example P-49, N,N-dipropyl-2-(5-methoxy-1H-indazol-3-yl)ethan-1-amine], the EC50 was > 10 µM at 5-HT2C receptor, 1.39 µM at 5-HT2A receptor and > 10 µM on 5-HT2B receptor.
Regarding `CN(C)CCc1n[nH]c2ccccc12` [Example P-7], the figures for the 50% effective concentration (EC50) at 5-HT2C receptor, on 5-HT2A receptor and at 5-HT2B receptor were 2.34 µM, > 10 µM and > 10 µM, respectively.
As for `COc1ccc2[nH]nc(CCN(C)C(C)C)c2c1` [Example P-52, N-(2-(5-methoxy-1H-indazol-3-yl)ethyl)-N-methylpropan-2-amine], the EC50 at 5-HT2C receptor was > 10 µM; on 5-HT2A receptor, 1.84 µM; at 5-HT2B receptor, > 10 µM.
Regarding `Cc1nccc2[nH]cc(CCN(C)C)c12` [Example P-39], on 5-HT2A receptor, the Emax was found to be 1.47% and the EC50 was > 10 µM.

A word on the Emax: it is the size of the effect at its maximum, as opposed to the concentration needed. The EC50 is the concentration giving half of the maximal effect.

Source of the values: patent US20250163044A1, “COMPOUNDS” (PSYLO PTY LTD, priority 2021, published 2025).
